# Literature values in patent US8293868B2 (priority 2004, dated 2012).
# Test system: α-subunit of the P. americana high conductance calcium-activated potassium channel (pSlo)
substance,measurement,value
charybdotoxin,block of pSlo channels previously reported,about 80%
